This note sets out measurements from patent EP3427727A1, “COMBINATION OF BIOLOGICALLY ACTIVE SUBSTANCES FOR STABILIZING OR INCREASING THE COLLAGEN CONTENT” (BioActive Food GmbH, priority 2017, dated 2019).

The experiment concerns Kollagen-Synthese. In words: Cellular test of collagen synthesis (method of Suh et al.; Biocolor collagen assay, detects collagen types I-IV). The class given is cell-based. An excerpt: In einem zellulären Test wurde die Wirkung von Vitamin K1 und Lutein auf die Kollagen-Synthese untersucht. Die Untersuchung erfolgte nach dem in Suh et al. (Biol Pharm Bull. 2009 Apr; 32(4):746-9) beschriebenen Verfahren. Das gebildete Kollagen wurde mit Hilfe eines Standardassays (Firma Biocolor Ltd., Carrickfergus, Großbritannien) bestimmt. Der Assay war in der Lage, Kollagen des Typs I-IV zu erfassen.

Structures are written as SMILES.

As to `CC1=C(C/C=C(\C)CCC[C@H](C)CCC[C@H](C)CCCC(C)C)C(=O)c2ccccc2C1=O` [Vitamin K, Vitamin K1], for the setting “Vitamin K 0,5 µM, Kontrolle = 100 %, read-out: Kollagen (relativ)”, the activity at 0.5 µM came out at 116%. For the setting “Vitamin K 0,5 µM, increase over control, read-out: Erhöhung (Kollagen)”, the activation at 0.5 µM turned out to be 16%.
For the compound `CC1=C[C@H](O)CC(C)(C)[C@H]1/C=C/C(C)=C/C=C/C(C)=C/C=C/C=C(C)/C=C/C=C(C)/C=C/C1=C(C)C[C@@H](O)CC1(C)C` [Lutein, (3R,6'R)-β-ε-Carotin-3,3'-diol], the activity at 2 µM (Lutein 2 µM, Kontrolle = 100 %, read-out: Kollagen (relativ)) is 105%. Besides, the activation at 2 µM (Lutein 2 µM, increase over control, read-out: Erhöhung (Kollagen)) was found to be 5%.
